This is an account of results in patent US10239842B2, “Hydrosoluble compounds derived from benzimidazole used in treating fasciolosis” (UNIVERSIDAD NACIONAL AUTONOMA DE MEXICO, priority 2014, dated 2019).

Read-outs that look alike come from different tables or passages of the source.

Data set [1] concerns Fasciola hepatica. The following applies: cited from earlier work; for Efficacy against Fasciola hepatica, first fasciola age span printed for the drug / Efficacy against Fasciola hepatica, second fasciola age span for the drug: sheep, recommended dose rates, span not recoverable from the grid; for Efficacy against Fasciola hepatica, first fasciola age span printed for the drug: first (younger) age span in weeks; for Efficacy against Fasciola hepatica, second fasciola age span for the drug: second (older) age span in weeks.

For data set [2], the system named is mature and juvenile fasciola. The settings on record: dose of 15 mg/Kg; previous studies; cited from earlier work.
Data set [3] can be described thus: Stability studies in aqueous solution by UV-HPLC. It is filed as physicochemical. The settings on record: >95% by UV-HPLC determined at room temperature. As to the method: Solutions were kept at room temperature (25° C.) for 26 hours (24 hour for TCBZ), and 5 mL of the samples were later diluted in 10 mL of water and analyzed by UV-HPLC.
Data set [4] can be described thus: Studies of aqueous solubility (method reported by Yalkowski). It is filed as physicochemical. The settings on record: determined at 25° C. As to the method:
Sample was stirred at room temperature for 48 hours until reaching equilibrium between the two phases. The tube was then centrifuged at 4500 rpm for minutes at room temperature. […] Its concentration was then determined in a spectrophotometer at 350 nm.

For data set [5] the following is noted: cited from earlier work.
For data set [6] the following is noted: TCBZ solubility reported in literature; cited from earlier work.
For data set [7], the system named is Fasciola hepatica. In words: In-vitro evaluation of fasciolicide efficacy on artificially excysted fasciola. It is filed as cell-based. As for the experimental part:
In order to evaluate the anti-fasciola effect of compounds 5 and 6 as mixture of regioisomers, artificially excysted fasciola were used (approximately six hours after excystment), according to the disclosure by Ibarra and Jenkins, (1984). Briefly, recently excysted fasciola are suspended in 90 ml of Roswell Park Memorial Institute (RPMI)-1640® culture media plus 90 ml of bovine serum and 1.5 ml of antibiotics (Penicillin and Streptomycin) at a density of 100 individuals/ml.
5 mg of experimental compound was used and placed in a universal bottle (30 ml capacity), to which 0.1 ml of methanol was added to dissolve the compound. From this point, required dilutions are carried out with distilled water to prepare concentrations of 50 and 10 mg/l.
24-well NUNC® culture dishes were used and 1.6 ml of culture medium (RPMI/bovine serum), 0.2 ml of the compound concentration to be tested and 0.2 ml of RPMI containing 10 fasciola per well are placed into each well. Control wells which contain fasciola without compound are used per each dish, further including a control group with a reference drug (Triclabendazole-Fasinex®-Novartis). Each concentration is carried out three times. Each sample remains under incubation at 37° C. during 4 days under a 5% CO2 atmosphere.
Fasciola under study are examined at 24, 48 and 72 hours post-exposure to compound through an inverted microscope at 40×. Extract activity is measured by comparing survival of treated fasciola with control group fasciola. All procedures are carried out under aseptic conditions in a laminar flow hood.
Efficacy is measured by using the following formula (Abbott, 2004): % Efficacy=[Fasciola in control group−Fasciola in treated group]/[[…]]
The extract is considered to have fasciolicide activity when showing an in vitro efficacy higher than 80%. (Ibarra & Jenkins, 1984; Elango & Rahuman, 2011; Ibarra et al, 2013).

Setting [8] is: 24 h, read-out: EFFICACY (%) 1st Test, mortality percentage.
The mark [9] stands for this setting: 24 h, read-out: EFFICACY (%) 2nd Test, mortality percentage.
Where [10] appears, read: 24 h, read-out: EFFICACY (%) 3rd Test, mortality percentage.
Setting [11] is: 24 h, read-out: EFFICACY (%) Average, mortality percentage.
Where [12] appears, read: 48 h, read-out: EFFICACY (%) 1st Test, mortality percentage.
[13] abbreviates: 48 h, read-out: EFFICACY (%) 2nd Test, mortality percentage.
Where [14] appears, read: 48 h, read-out: EFFICACY (%) 3rd Test, mortality percentage.
[15] abbreviates: 48 h, read-out: EFFICACY (%) Average, mortality percentage.
Where [16] appears, read: 72 h, read-out: EFFICACY (%) 1st Test, mortality percentage.
Where [17] appears, read: 72 h, read-out: EFFICACY (%) 2nd Test, mortality percentage.
[18] abbreviates: 72 h, read-out: EFFICACY (%) 3rd Test, mortality percentage.
Setting [19] is: 72 h, read-out: EFFICACY (%) Average, mortality percentage.

As for `CCCSc1ccc2nc(NC(=O)OC)[nH]c2c1` [Albendazole], the “efficacy over Fasciola hepatica” value in the data set on Fasciola hepatica [1] (fasciola age weeks 10-11) is on record as 50-70%; in the data set on Fasciola hepatica [1] (fasciola age weeks 12-14), 80-90%.

On to `CSc1nc2cc(Oc3cccc4ccccc34)c(Cl)cc2[nH]1` [Alpha compound, 5-Chloro-2-(methylthio)-6-(1-naphthyloxy)-1H-benzimidazole], for which the “efficacy against mature and juvenile fasciola” value in data set [2] is 86.9%. In addition, the “Aqueous solubility (h) pH 7 [chemical stability]” value in data set [3] was above 26 h. Besides, the “Aqueous solubility pH 7” value in data set [4] was 2.6×10^−4 mg/mL.

For the molecule `Nc1cc(C(Cl)=C(Cl)Cl)c(S(N)(=O)=O)cc1S(N)(=O)=O` [Closuron], the “Efficacy against Fasciola hepatica, first fasciola age span printed for the drug” value with Fasciola hepatica [1] is given as 90-99%.

For the molecule `CC(=O)Nc1ccc(OCCOCCOc2ccc(NC(C)=O)cc2)cc1` [Diamphenetide], in the data set with Fasciola hepatica [1] (7-week adult fasciola), the “efficacy in adult fasciola” value is “not being effective”. Besides, in the data set with Fasciola hepatica [1], the “Efficacy against Fasciola hepatica, first fasciola age span printed for the drug” value is on record as 91-100% and the “Efficacy against Fasciola hepatica, second fasciola age span for the drug” value (from here on “Efficacy … second fasciola age span for the drug”) was 50-80%.

On to `O=C(Nc1ccc(Oc2ccc(Cl)cc2)c(Cl)c1)c1cc(I)cc(I)c1O` [Rafoxanide], for which, in the data set on Fasciola hepatica [1], the “Efficacy … second fasciola age span for the drug” value is recorded as 91-99%.

As usually defined, the mortality is the share of the test organisms that died. In the case of `CSc1nc2cc(Oc3cccc(Cl)c3Cl)c(Cl)cc2[nH]1` [Triclabendazole], the “absorbed fraction of administered dose” value in data set [5] (orally administered) is recorded as 5%. Besides, in data set [5] (share of dose), the “plasma levels of triclabendazole as sulfoxide” value is on record as 5%. The removed in feces in data set [5] (share of dose) is listed as 92%. Further, in data set [5] (share of dose), the removed in milk was 1%. Moreover, in data set [5] (share of dose), the removed in urine is given as 2%. Further, the “Aqueous solubility pH 7” value in data set [6] is 2.0 × 10^−4 mg/mL. Besides, the mortality at 10 µg/mL with Fasciola hepatica [7] (setting [8]), in the data set on Fasciola hepatica [7] (setting [9]), in the data set on Fasciola hepatica [7] (setting [10]), with Fasciola hepatica [7] (setting [11]), in the data set with Fasciola hepatica [7] (setting [12]) and with Fasciola hepatica [7] (setting [13]) was 100% each time. In addition, the mortality at 10 µg/mL with Fasciola hepatica [7] (setting [14]), with Fasciola hepatica [7] (setting [15]), in the data set with Fasciola hepatica [7] (setting [16]), in the data set on Fasciola hepatica [7] (setting [17]), in the data set with Fasciola hepatica [7] (setting [18]) and in the data set on Fasciola hepatica [7] (setting [19]) was 100% each time. Besides, the mortality at 50 µg/mL in the data set on Fasciola hepatica [7] (setting [8]), in the data set with Fasciola hepatica [7] (setting [9]), in the data set on Fasciola hepatica [7] (setting [10]), in the data set on Fasciola hepatica [7] (setting [11]), in the data set with Fasciola hepatica [7] (setting [12]) and in the data set with Fasciola hepatica [7] (setting [13]) was 100% throughout. Also, the mortality at 50 µg/mL in the data set with Fasciola hepatica [7] (setting [14]), with Fasciola hepatica [7] (setting [15]), in the data set with Fasciola hepatica [7] (setting [16]), in the data set on Fasciola hepatica [7] (setting [17]), in the data set with Fasciola hepatica [7] (setting [18]) and with Fasciola hepatica [7] (setting [19]) was 100% throughout. Also, the “Efficacy … second fasciola age span for the drug” value in the data set with Fasciola hepatica [1] is 91-99%. Moreover, the “Aqueous solubility (h) pH 7 [chemical stability]” value in data set [3] is on record as above 24 h.
